Source: patent publication US20250059171A1 (Hoffmann-La Roche Inc., priority 2021, published 2025)

What was measured:
SARS-CoV-2 3CLpro = SARS-CoV-2 3CLpro (Severe acute respiratory syndrome coronavirus 2, UniProt P0DTD1); assay: biochemical
HCoV-229E 3CLpro = HCoV-229E 3CLpro (Human coronavirus 229E, UniProt P0C6X1); assay: HCoV-229E 3CLpro inhibition assay (FRET); type: biochemical
MERS-CoV 3CLpro = MERS-CoV 3CLpro (Middle East respiratory syndrome-related coronavirus, UniProt K9N7C7); assay: biochemical
Sequence of MERS-CoV 3CLpro (K9N7C7 3248-3553): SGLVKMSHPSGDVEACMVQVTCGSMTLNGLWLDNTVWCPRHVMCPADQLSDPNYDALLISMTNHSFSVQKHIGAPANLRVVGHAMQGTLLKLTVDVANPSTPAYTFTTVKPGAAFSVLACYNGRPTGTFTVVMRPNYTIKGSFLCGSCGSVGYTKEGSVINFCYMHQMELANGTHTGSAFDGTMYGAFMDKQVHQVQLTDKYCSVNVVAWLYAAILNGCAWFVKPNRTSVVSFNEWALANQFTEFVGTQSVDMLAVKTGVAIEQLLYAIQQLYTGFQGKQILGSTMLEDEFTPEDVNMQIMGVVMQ

SARS-CoV 3CLpro = SARS-CoV 3CLpro (Severe acute respiratory syndrome coronavirus, UniProt P0C6X7); assay: biochemical

Sequence of HCoV-229E 3CLpro (P0C6X1 2966-3267): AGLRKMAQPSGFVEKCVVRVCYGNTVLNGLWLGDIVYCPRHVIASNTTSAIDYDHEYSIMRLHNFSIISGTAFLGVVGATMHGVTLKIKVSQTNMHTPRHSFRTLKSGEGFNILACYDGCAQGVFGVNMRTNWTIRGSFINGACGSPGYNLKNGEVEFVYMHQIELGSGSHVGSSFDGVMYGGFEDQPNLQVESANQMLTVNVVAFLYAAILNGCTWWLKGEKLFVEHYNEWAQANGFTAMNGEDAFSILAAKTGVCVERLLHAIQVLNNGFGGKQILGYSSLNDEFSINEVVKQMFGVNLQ

| SMILES | IC50 (SARS-CoV-2 3CLpro) [nM] | IC50 (HCoV-229E 3CLpro) [nM] | IC50 (MERS-CoV 3CLpro) [nM] | IC50 (SARS-CoV 3CLpro) [nM] |
| --- | --- | --- | --- | --- |
| CCC(C)(C)[C@H](NC(=O)C(F)F)C(=O)N1C[C@@H]2CCC[C@@H]2[C@H]1C(=O)NN(C[C@@H]1CCNC1=O)C(=O)[C@H](F)Cl [Example 151, N-[(1S)-1-[(3S,3aS,6aR)-3-[[[(2R)-2-chloro-2-fluoro-acetyl]-[[(3S)-2-oxopyrrolidin-3-yl]methyl]amino]carbamoyl]-3,3a,4,5,6,6a-hexahydro-1H-cyclopenta[c]pyrrole-2-carbonyl]-2,2-dimethyl-butyl]-2,2-difluoro-acetamide] | 13 | 31 | 67 | 14 |
| CCC(C)(C)[C@H](NC(=O)[C@@H]1CC1(F)F)C(=O)N1C[C@@H]2CCC[C@@H]2[C@H]1C(=O)NN(C[C@@H]1CCNC1=O)C(=O)[C@@H](F)Cl [Example 152, (1S)—N-[(1S)-1-[(3S,3aS,6aR)-3-[[[(2S)-2-chloro-2-fluoro-acetyl]-[[(3S)-2-oxopyrrolidin-3-yl]methyl]amino]carbamoyl]-3,3a,4,5,6,6a-hexahydro-1H-cyclopenta[c]pyrrole-2-carbonyl]-2,2-dimethyl-butyl]-2,2-difluoro-cyclopropanecarboxamide] | 15 | 28 | 99 | 20 |
| CCC(C)(C)[C@H](NC(=O)C(F)F)C(=O)N1C[C@@H]2CCC[C@@H]2[C@H]1C(=O)NN(C[C@@H]1CCNC1=O)C(=O)[C@@H](F)Cl [Example 153, N-[(1S)-1-[(3S,3aS,6aR)-3-[[[(2S)-2-chloro-2-fluoro-acetyl]-[[(3S)-2-oxopyrrolidin-3-yl]methyl]amino]carbamoyl]-3,3a,4,5,6,6a-hexahydro-1H-cyclopenta[c]pyrrole-2-carbonyl]-2,2-dimethyl-butyl]-2,2-difluoro-acetamide] | 12 | 43 | 250 | 15 |
| CCC(C)(C)[C@H](NC(=O)C1(F)CC1)C(=O)N1CC(C)(C)C[C@H]1C(=O)NN(C[C@@H]1CCNC1=O)C(=O)[C@H](F)Cl [Example 154, N-[(1S)-1-[(2S)-2-[[[(2R)-2-chloro-2-fluoro-acetyl]-[[(3S)-2-oxopyrrolidin-3-yl]methyl]amino]carbamoyl]-4,4-dimethyl-pyrrolidine-1-carbonyl]-2,2-dimethyl-butyl]-1-fluoro-cyclopropanecarboxamide] | 17 | 52 | 305 | 21 |
| CC(C)(C)[C@H](NC(=O)C(F)(F)F)C(=O)N1CCC(C)(C)[C@H]1C(=O)NN(C[C@@H]1CCNC1=O)C(=O)[C@H](F)Cl [Example 155a, N-[(1S)-1-[(2S)-2-[[[(2R)-2-chloro-2-fluoro-acetyl]-[[(3S)-2-oxopyrrolidin-3-yl]methyl]amino]carbamoyl]-3,3-dimethyl-pyrrolidine-1-carbonyl]-2,2-dimethyl-propyl]-2,2,2-trifluoro-acetamide] | 24 | 739 | 1330 | 28 |
| CC(C)(C)[C@H](NC(=O)C(F)(F)F)C(=O)N1CCC(C)(C)[C@@H]1C(=O)NN(C[C@@H]1CCNC1=O)C(=O)[C@H](F)Cl [Example 155b, N-[(1S)-1-[(2R)-2-[[[(2R)-2-chloro-2-fluoro-acetyl]-[[(3S)-2-oxopyrrolidin-3-yl]methyl]amino]carbamoyl]-3,3-dimethyl-pyrrolidine-1-carbonyl]-2,2-dimethyl-propyl]-2,2,2-trifluoro-acetamide] | 1570 | > 10000 | > 10000 | 2440 |
| CC1(C)[C@@H]2[C@@H](C(=O)NN(C[C@@H]3CCNC3=O)C(=O)[C@H](F)Cl)N(C(=O)[C@@H](NC(=O)C3(F)CC3)C3CCC3)C[C@@H]21 [Example 156, N-[(1S)-2-[(1R,2S,5S)-2-[[[(2R)-2-chloro-2-fluoro-acetyl]-[[(3S)-2-oxopyrrolidin-3-yl]methyl]amino]carbamoyl]-6,6-dimethyl-3-azabicyclo[3.1.0]hexan-3-yl]-1-cyclobutyl-2-oxo-ethyl]-1-fluoro-cyclopropanecarboxamide] | 14 | 32 | 106 | 28 |
| CC1(C)[C@@H]2[C@@H](C(=O)NN(C[C@@H]3CCNC3=O)C(=O)[C@@H](F)Cl)N(C(=O)[C@@H](NC(=O)C3(F)CC3)C3CCC3)C[C@@H]21 [Example 157, N-[(1S)-2-[(1R,2S,5S)-2-[[[(2S)-2-chloro-2-fluoro-acetyl]-[[(3S)-2-oxopyrrolidin-3-yl]methyl]amino]carbamoyl]-6,6-dimethyl-3-azabicyclo[3.1.0]hexan-3-yl]-1-cyclobutyl-2-oxo-ethyl]-1-fluoro-cyclopropanecarboxamide] | 44 | 60 | 149 | 58 |
| CC(C)(C)[C@H](NC(=O)[C@@H]1CC1(F)F)C(=O)N1C[C@H](C(F)(F)F)C[C@H]1C(=O)NN(C[C@@H]1CCNC1=O)C(=O)[C@H](F)Cl [Example 158, (1S)—N-[(1S)-1-[(2S,4R)-2-[[[(2R)-2-chloro-2-fluoro-acetyl]-[[(3S)-2-oxopyrrolidin-3-yl]methyl]amino]carbamoyl]-4-(trifluoromethyl)pyrrolidine-1-carbonyl]-2,2-dimethyl-propyl]-2,2-difluoro-cyclopropanecarboxamide] | 11 | 34 | 80 | 17 |
| CC(C)(C)[C@H](NC(=O)[C@@H]1CC1(F)F)C(=O)N1C[C@H](C(F)(F)F)C[C@H]1C(=O)NN(C[C@@H]1CCNC1=O)C(=O)[C@@H](F)Cl [Example 159, (1S)—N-[(1S)-1-[(2S,4R)-2-[[[(2S)-2-chloro-2-fluoro-acetyl]-[[(3S)-2-oxopyrrolidin-3-yl]methyl]amino]carbamoyl]-4-(trifluoromethyl)pyrrolidine-1-carbonyl]-2,2-dimethyl-propyl]-2,2-difluoro-cyclopropanecarboxamide] | 13 | 40 | 103 | 13 |
| CC[C@H](C)[C@H](NC(=O)C1(F)CC1)C(=O)N1C[C@H](C(F)(F)F)C[C@H]1C(=O)NN(C[C@@H]1CCNC1=O)C(=O)[C@H](F)Cl [Example 160, N-[(1S,2S)-1-[(2S,4R)-2-[[[(2R)-2-chloro-2-fluoro-acetyl]-[[(3S)-2-oxopyrrolidin-3-yl]methyl]amino]carbamoyl]-4-(trifluoromethyl)pyrrolidine-1-carbonyl]-2-methyl-butyl]-1-fluoro-cyclopropanecarboxamide] | 13 | 24 | 105 | 19 |
| CC[C@H](C)[C@H](NC(=O)C1(F)CC1)C(=O)N1C[C@H](C(F)(F)F)C[C@H]1C(=O)NN(C[C@@H]1CCNC1=O)C(=O)[C@@H](F)Cl [Example 161, N-[(1S,2S)-1-[(2S,4R)-2-[[[(2S)-2-chloro-2-fluoro-acetyl]-[[(3S)-2-oxopyrrolidin-3-yl]methyl]amino]carbamoyl]-4-(trifluoromethyl)pyrrolidine-1-carbonyl]-2-methyl-butyl]-1-fluoro-cyclopropanecarboxamide] | 16 | 99 | 336 | 27 |
| CC(C)(C)C[C@H](NC(=O)C1(F)CC1)C(=O)N1C[C@H]2[C@@H]([C@H]1C(=O)NN(C[C@@H]1CCNC1=O)C(=O)[C@H](F)Cl)C2(C)C [Example 162, N-[(1S)-1-[(1R,2S,5S)-2-[[[(2R)-2-chloro-2-fluoro-acetyl]-[[(3S)-2-oxopyrrolidin-3-yl]methyl]amino]carbamoyl]-6,6-dimethyl-3-azabicyclo[3.1.0]hexane-3-carbonyl]-3,3-dimethyl-butyl]-1-fluoro-cyclopropanecarboxamide] | 12 | 33 | 94 | 15 |
| CC(C)(C)[C@H](NC(=O)C(F)(F)F)C(=O)N1C[C@@H]2CCC[C@@H]2[C@H]1C(=O)NN(C[C@@H]1CCCNC1=O)C(=O)[C@H](F)Cl [Example 164a, N-[(1S)-1-[(3S,3aS,6aR)-3-[[[(2R)-2-chloro-2-fluoro-acetyl]-[[(3S)-2-oxo-3-piperidyl]methyl]amino]carbamoyl]-3,3a,4,5,6,6a-hexahydro-1H-cyclopenta[c]pyrrole-2-carbonyl]-2,2-dimethyl-propyl]-2,2,2-trifluoro-acetamide] | 8 | 98 | 243 | 16 |
| CC[C@H](C)[C@H](NC(=O)C1(F)CC1)C(=O)N1C[C@H]2[C@@H]([C@H]1C(=O)NN(C[C@@H]1CCCNC1=O)C(=O)[C@H](F)Cl)C2(C)C [Example 166a, N-[(1S,2S)-1-[(1R,2S,5S)-2-[[[(2R)-2-chloro-2-fluoro-acetyl]-[[(3S)-2-oxo-3-piperidyl]methyl]amino]carbamoyl]-6,6-dimethyl-3-azabicyclo[3.1.0]hexane-3-carbonyl]-2-methyl-butyl]-1-fluoro-cyclopropanecarboxamide] | 13 | 47 | 229 | 18 |
| CC[C@H](C)[C@H](NC(=O)C1(F)CC1)C(=O)N1C[C@H]2[C@@H]([C@H]1C(=O)NN(C[C@H]1CCCNC1=O)C(=O)[C@H](F)Cl)C2(C)C [Example 166b, N-[(1S,2S)-1-[(1R,2S,5S)-2-[[[(2R)-2-chloro-2-fluoro-acetyl]-[[(3R)-2-oxo-3-piperidyl]methyl]amino]carbamoyl]-6,6-dimethyl-3-azabicyclo[3.1.0]hexane-3-carbonyl]-2-methyl-butyl]-1-fluoro-cyclopropanecarboxamide] | 19 | 51 | 239 | 30 |
